Experiments:
[1] = test system: intracellular beta-lactamase; assay: nitrocefin hydrolysis by bacterial cell suspension on Phoenix panel; format: cell-based, E. coli; parameters: unit not given here; conditions: maximum hydrolysis rate within 10 hrs; for NCF activity: no lysis reagent
Protocol: (§1) Panel production. Stock solutions with nitrocefin, trehalose, and/or reagents used to lyse the bacterial cells in pH6 MES buffer were prepared and dispensed into wells on the bottom part of a Phoenix™ panel (BD, USA), with one stock solution in one well. Panels were then dried in an oven for approximately 30 min at approximately 70° C. The top part of Phoenix panel was then attached to the bottom part forming a panel system ready for inoculation. The concentrations of reagents after rehydration following Phoenix panel inoculation were 3 mg/ml lysozyme, 1 mM EDTA, and 1% trehalose in 0.1M pH6 MES buffer.
(§2) Inoculation and lysis testing. Representative strains of bacteria, such as E. coli and Klebsiella pneumoniae, were each streaked on a Trypticase™ Soy Agar with 5% Sheep Blood agar plate (BD, USA) and the plates were incubated at 35° C. for 18 hours. Afterwards, colonies from pure culture on each plate were inoculated into BD Phoenix ID broth and adjusted to a desired turbidity of approximately 0.5 MacFarland. The bacterial cell suspension was then poured into the ID side of the Phoenix panels that were specifically made for cell lysis testing. Once inoculated, the panel was loaded into Phoenix instrument, where nitrocefin hydrolysis rate was monitored by colorimetric signals changes every 20 minutes for 16 hours.
(§3) Microorganism. The presence of beta-lactamase in the strains tested herein was previously characterized by isoelectric focusing (IEF) gel electrophoresis, PCR testing, or MIC assays, which were performed by microbroth dilution method according to the CLSI (Clinical and Laboratory Standards Institute) standard.

[2] = test system: intracellular beta-lactamase; assay: as above; format: cell-based, Klebsiella pneumoniae; parameters: unit not given here; conditions: maximum hydrolysis rate within 10 hrs; for NCF activity: no lysis reagent
Protocol: as §1, §2, §3

[3] = Sample 1, E. coli, beta-lactamase +
[4] = Sample 2, E. coli, beta-lactamase +
[5] = Sample 3, E. coli, beta-lactamase +
[6] = Sample 4, E. coli, beta-lactamase +
[7] = Sample 5, E. coli, beta-lactamase +
[8] = Sample 6, E. coli, beta-lactamase +
[9] = Sample 7, E. coli, beta-lactamase +
[10] = Sample 8, E. coli, beta-lactamase −
[11] = Sample 9, Klebsiella pneumoniae, beta-lactamase +
[12] = Sample 10, Klebsiella pneumoniae, beta-lactamase +
[13] = Sample 11, Klebsiella pneumoniae, beta-lactamase +
[14] = Sample 12, Klebsiella pneumoniae, beta-lactamase +
[15] = Sample 13, Klebsiella pneumoniae, beta-lactamase +
[16] = Sample 14, Klebsiella pneumoniae, beta-lactamase +
[17] = Sample 15, Klebsiella pneumoniae, beta-lactamase +
[18] = Sample 16, Klebsiella pneumoniae, beta-lactamase −

O=C(Cc1cccs1)N[C@@H]1C(=O)N2C(C(=O)O)=C(/C=C/c3ccc([N+](=O)[O-])cc3[N+](=O)[O-])CS[C@H]12 [NCF, 3-[2,4-dinitrostyryl]-7-(2-thienylacetamido]3-cephem-4-carboxylic acid]
NCF activity [1, 3]: 1.9 | NCF activity with lysis reagent [1, 3]: 7.2 | NCF activity [1, 4]: 2.1 | NCF activity with lysis reagent [1, 4]: 7.7 | NCF activity [1, 5]: 2.3 | NCF activity with lysis reagent [1, 5]: 8.1 | NCF activity [1, 6]: 1.9 | NCF activity with lysis reagent [1, 6]: 6.8 | NCF activity [1, 7]: 8.2 | NCF activity with lysis reagent [1, 7]: 9.1 | NCF activity [1, 8]: 7.2 | NCF activity with lysis reagent [1, 8]: 8.1 | NCF activity [1, 9]: 6.8 | NCF activity with lysis reagent [1, 9]: 8.4 | NCF activity [1, 10]: 1.7 | NCF activity with lysis reagent [1, 10]: 1.8 | NCF activity [2, 11]: 1.3 | NCF activity with lysis reagent [2, 11]: 4.6 | NCF activity [2, 12]: 3.3 | NCF activity with lysis reagent [2, 12]: 6.3 | NCF activity [2, 13]: 3.9 | NCF activity with lysis reagent [2, 13]: 6.1 | NCF activity [2, 14]: 2.6 | NCF activity with lysis reagent [2, 14]: 5.6 | NCF activity [2, 15]: 6.7 | NCF activity with lysis reagent [2, 15]: 6.8 | NCF activity [2, 16]: 7.5 | NCF activity with lysis reagent [2, 16]: 8.8 | NCF activity [2, 17]: 9.1 | NCF activity with lysis reagent [2, 17]: 9.5 | NCF activity [2, 18]: 1.2 | NCF activity with lysis reagent [2, 18]: 1.8
